Test results taken from patent US10485235B2, “Aryloxypyrimidinyl ethers as herbicides” (FMC Corporation, priority 2015, dated 2019).

What was measured:
Type in all cases: in vivo
corn (Zea mays) = assay: Test A postemergence, corn
How it was run: (§1)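 Ratings run 0–100, where 100 is complete control, and were scored visually against untreated plants about 10 days after treatment under greenhouse conditions. Formulated chemicals were sprayed either onto the soil surface after seeding (preemergence) or onto one- to two-leaf seedlings 2–10 cm high (postemergence).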

[1] = test system: wheat (Triticum aestivum); assay: Test A postemergence, wheat
How it was run: as §1

[2] = test system: foxtail, giant (giant foxtail, Setaria faberii); assay: Test A postemergence, giant foxtail
How it was run: as §1

rice (Oryza sativa) = assay: Test B flooded paddy test, rice; conditions: 250 g ai/ha, Flood; visual rating after 13 to 15 days; scale 0 to 100, 0 is no effect, 100 is complete control
How it was run: (§2)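 Seedlings at the 2-leaf stage are flooded to 3 cm and treated via the paddy water. Greenhouse plants are compared with controls after 13 to 15 days and given a 0 (no effect) to 100 (complete control) rating.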

[3] = test system: ryegrass, Italian (Italian ryegrass, Lolium multiflorum); assay: Test A postemergence, Italian ryegrass
How it was run: as §1

[4] = test system: ducksalad (Heteranthera limosa); assay: Test B flooded paddy test, ducksalad; conditions: 250 g ai/ha, Flood; visual rating after 13 to 15 days; scale 0 to 100, 0 is no effect, 100 is complete control
How it was run: as §2

[5] = test system: ragweed (common ragweed, Ambrosia elatior); assay: Test A postemergence, ragweed
How it was run: as §1

[6] = test system: pigweed (Amaranthus retroflexus); assay: Test A preemergence, pigweed; conditions: Preemergence, 0 to 100 scale (0 no effect, 100 complete control)
How it was run: as §1

[7] = test system: ragweed (common ragweed, Ambrosia elatior); assay: Test A preemergence, ragweed; conditions: Preemergence, 0 to 100 scale (0 no effect, 100 complete control)
How it was run: as §1

[8] = test system: sedge, umbrella (small-flower umbrella sedge, Cyperus difformis); assay: Test B flooded paddy test, umbrella sedge; conditions: 250 g ai/ha, Flood; visual rating after 13 to 15 days; scale 0 to 100, 0 is no effect, 100 is complete control
How it was run: as §2

[9] = test system: ryegrass, Italian (Italian ryegrass, Lolium multiflorum); assay: Test A preemergence, Italian ryegrass; conditions: Preemergence, 0 to 100 scale (0 no effect, 100 complete control)
How it was run: as §1

[10] = test system: barnyardgrass (Echinochloa crus-galli); assay: Test A preemergence, barnyardgrass; conditions: Preemergence, 0 to 100 scale (0 no effect, 100 complete control)
How it was run: as §1

[11] = test system: barnyardgrass (Echinochloa crus-galli); assay: Test A postemergence, barnyardgrass
How it was run: as §1

[12] = test system: barnyardgrass (Echinochloa crus-galli); assay: Test B flooded paddy test, barnyardgrass; conditions: 250 g ai/ha, Flood; visual rating after 13 to 15 days; scale 0 to 100, 0 is no effect, 100 is complete control
How it was run: as §2

kochia (Kochia scoparia) [13] = assay: Test A preemergence, kochia; conditions: Preemergence, 0 to 100 scale (0 no effect, 100 complete control)
How it was run: as §1

[14] = test system: galium (catchweed bedstraw, Galium aparine); assay: Test A postemergence, galium
How it was run: as §1

[15] = test system: blackgrass (Alopecurus myosuroides); assay: Test A postemergence, blackgrass
How it was run: as §1

kochia (Kochia scoparia) [16] = assay: Test A postemergence, kochia
How it was run: as §1

[17] = test system: foxtail, giant (giant foxtail, Setaria faberii); assay: Test A preemergence, giant foxtail; conditions: Preemergence, 0 to 100 scale (0 no effect, 100 complete control)
How it was run: as §1

[18] = test system: pigweed (Amaranthus retroflexus); assay: Test A postemergence, pigweed
How it was run: as §1

[19] = 125 g ai/ha, postemergence, 0 to 100 scale, 0 is no effect, 100 is complete control, approximately 10 days
[20] = Postemergence, 31 g ai/ha, 0 to 100 scale (0 no effect, 100 complete control)
[21] = 31 g ai/ha, postemergence, 0 to 100 scale, 0 is no effect, 100 is complete control, approximately 10 days

CCC(=O)COc1c(C#N)cccc1Oc1ncc(Cl)cn1 [Compound 75]
10: Plant response rating, Corn (corn (Zea mays); [19]) | Plant response rating, Galium [14, 20] | Plant response rating, Kochia (kochia (Kochia scoparia) [16]; [20]) | Plant response rating, Pigweed [18, 20]
30: Plant response rating, Ducksalad [4]
0: Plant response rating, Corn (corn (Zea mays); [20]) | Plant response rating, Wheat [1, 19] | Plant response rating, Wheat [1, 20] | Plant response rating, Foxtail, Giant [2, 19] | Plant response rating, Foxtail, Giant [2, 20] | Plant response rating, Rice (rice (Oryza sativa)) | Plant response rating, Ryegrass, Italian [3, 19] | Plant response rating, Ryegrass, Italian [3, 20] | Plant response rating, Ragweed [5, 19] | Plant response rating, Ragweed [5, 20] | Plant response rating, Ragweed ([7]; 31 g ai/ha) | Plant response rating, Ragweed ([7]; 125 g ai/ha) | Plant response rating, Sedge, Umbrella [8] | Plant response rating, Ryegrass, Italian ([9]; 31 g ai/ha) | Plant response rating, Ryegrass, Italian ([9]; 125 g ai/ha) | Plant response rating, Barnyardgrass ([10]; 31 g ai/ha) | Plant response rating, Barnyardgrass [11, 19] | Plant response rating, Barnyardgrass [11, 20] | Plant response rating, Barnyardgrass [12] | Plant response rating, Kochia (kochia (Kochia scoparia) [13]; 31 g ai/ha) | Plant response rating, Blackgrass [15, 19] | Plant response rating, Blackgrass [15, 20] | Plant response rating, Foxtail, Giant ([17]; 31 g ai/ha)
20: Plant response rating, Galium [14, 19] | Plant response rating, Kochia (kochia (Kochia scoparia) [16]; [19]) | Plant response rating, Pigweed [18, 19]
60: Plant response rating, Kochia (kochia (Kochia scoparia) [13]; 125 g ai/ha)
100: Plant response rating, Pigweed ([6]; 125 g ai/ha)
50: Plant response rating, Pigweed ([6]; 31 g ai/ha) | Plant response rating, Barnyardgrass ([10]; 125 g ai/ha)
40: Plant response rating, Foxtail, Giant ([17]; 125 g ai/ha)

CCCOc1c(C#N)cccc1Oc1ncc(Cl)cn1 [Compound 50]
30: Plant response rating, Barnyardgrass [12]
10: Plant response rating, Corn (corn (Zea mays); [21]) | Plant response rating, Corn (corn (Zea mays); [19]) | Plant response rating, Ragweed [5, 21] | Plant response rating, Ragweed [5, 19] | Plant response rating, Barnyardgrass ([10]; 31 g ai/ha) | Plant response rating, Galium [14, 21] | Plant response rating, Blackgrass [15, 19] | Plant response rating, Foxtail, Giant ([17]; 31 g ai/ha)
40: Plant response rating, Galium [14, 19]
50: Plant response rating, Ducksalad [4]
80: Plant response rating, Kochia (kochia (Kochia scoparia) [16]; [19])
100: Plant response rating, Pigweed ([6]; 125 g ai/ha) | Plant response rating, Kochia (kochia (Kochia scoparia) [13]; 125 g ai/ha)
0: Plant response rating, Wheat [1, 21] | Plant response rating, Wheat [1, 19] | Plant response rating, Foxtail, Giant [2, 21] | Plant response rating, Rice (rice (Oryza sativa)) | Plant response rating, Ryegrass, Italian [3, 21] | Plant response rating, Ryegrass, Italian [3, 19] | Plant response rating, Ragweed ([7]; 31 g ai/ha) | Plant response rating, Ragweed ([7]; 125 g ai/ha) | Plant response rating, Ryegrass, Italian ([9]; 31 g ai/ha) | Plant response rating, Ryegrass, Italian ([9]; 125 g ai/ha) | Plant response rating, Barnyardgrass [11, 21] | Plant response rating, Blackgrass [15, 21]
60: Plant response rating, Sedge, Umbrella [8]
70: Plant response rating, Pigweed [18, 19]
20: Plant response rating, Foxtail, Giant [2, 19] | Plant response rating, Pigweed ([6]; 31 g ai/ha) | Plant response rating, Barnyardgrass ([10]; 125 g ai/ha) | Plant response rating, Barnyardgrass [11, 19] | Plant response rating, Kochia (kochia (Kochia scoparia) [13]; 31 g ai/ha) | Plant response rating, Kochia (kochia (Kochia scoparia) [16]; [21]) | Plant response rating, Pigweed [18, 21]
90: Plant response rating, Foxtail, Giant ([17]; 125 g ai/ha)
